# Legend:
# [1] = Physiological stability in PBS (pH=7.4) (HPLC); format: physicochemical; settings: for stability in PBS (pH=7.4) (in words): 0-24 h; for HPLC peak area of drug: PBS (pH = 7.4)
# [2] = system: Bel7402: a human liver cancer cell line; assay: MTT analytical method, Bel7402 cells; format: cell-based; settings: Bel-7402, 72 h
# [3] = In vitro stability in simulated intestinal fluid (HPLC); format: physicochemical; settings: for stability in simulated intestinal fluid (in words): 0-24 h; for Degrade % / HPLC peak area of drug: simulated intestinal fluid
# [4] = Stability in human blood plasma (HPLC); format: in vitro ADME; settings: for stability in blood plasma (in words): 0-12 h; for chromatography peak area of drug / Degrade %: plasma
# Experimental: Isopropanol (1 mL) was then added into the blood sample and vortexed for 30 s and kept still for 5 min. 2.5 ml of EtOAc was added and votexed and centrifuged at 4000 rpm for 15 minutes. The supernatant was taken and dried by blowing in nitrogen. The dried sample was redissolved in 200 μL HPLC mobile phase solution. 20 μL sample was loaded to the HPLC.
# The samples were processed using the standard method.
# [5] = system: HT29 tumor transplanted in nude mice; assay: HT29 tumor transplanted in nude mice, intravenous administration; settings: for weight loss rate: 20 mg/kg i.v., d17, HT29 nude mice; for toxicity judged by body weight loss, in words: mouse, in vivo, iv; for inhibitory rate (relative tumor volume) at the end of the experiments: HT29
# Experimental: (§1) 1. […] The drugs were packaged and stored at −20° C.
# (§2) The treatment starting day was the first day (d0). […] The tumor tissues were removed and weighed. The inhibition rate of tumor growth was calculated.
# [6] = system: HepG2 tumor transplanted in nude mice; assay: HepG2 tumor transplanted in nude mice, intravenous administration; format: in vivo, BALB/C nude mice; settings: for weight loss rate: HepG2 nude mice; for effect on growth of HepG2 tumor (growth curve and tumor weight), in words: i.v., SL-01 10, 20, 40 mg/kg, Gem group
# Experimental: as §1, §2
# 4.2 The low, middle and high dosage of SL-01 in the treatment for HepG2 liver cancer cell line tumor growth transplanted in nude mice are 10, 20 and 40 mg/kg, respectively.
# [7] = system: MDA-MB-231: a human breast cancer line; assay: MTT analytical method, MDA-MB-231 cells; format: cell-based; settings: MDA-MB-231, MTT, 72 h
# From the text: MTT analytical method was used to test the prodrugs for various tumor cells.
# • 1) Cell lines: NCI-H460, A549, LOVO, HT-29, MDA-MB-231, SGC7901, HepG2 or BEL-7402 cell lines. Culture: adherent culturing in D-MEM (Hyclone, Inc.) containing 10% fetal calf serum. The initial cell concentration was about 3×10^5 /mL. The cell was passaged by 1:3 dilution in every 2-3 days. On the day before the test, the cell was passaged by 1:2 dilution, the cell concentration for the test was 5-10×10^5 /mL. • 2) Dissolution and dilution of compounds: according to the weight and molecular weight of the drugs provided, 100-200 μL of DMSO was added. Then normal saline was added to make the final diluted concentration of the drugs be 5 mM (Note that the final concentration of DMSO should not be more than 10%). • 3) D-MEM or RPMI 1640 cell culture medium, Gibco, Inc. • 4) Fetal calf serum Hyclone, Inc. • 5) Cell dissociation buffer, 0.25% Trypsin+0.02% EDTA. • 6) MTT solution, MTT Powder (Sigma) were dissolved in PBS buffer solution to make a solution of 5 mg/mL. The solution was filtered by a 0.22 μm micropore membrane and stored at −20° C. • 7) PBS buffer solution. • 8) 10% acidified SDS, 0.01N HCl. • 9) Centrifuge tubes, haustorial tubes etc. (BD, Inc.); 96-well plates (Costatr, Inc.) Procedures: • 1) Cell inoculation: Cells grown for 24 hours after passage, which cells were in good growth state, were used. The cells were harvested by the routine method. The cell concentration was adjust with a fresh culture solution to 2×10^5/mL (for adherent cells)-3×10^5/mL (for suspension cells). The adherent cells were inoculated at 100 μL/well and then cultivated in an incubator with 5% CO2 at 37° C. for 24 h. Thereafter the used culture solution was removed and 95 μL/well of fresh culture solution was added. The suspension cells were inoculated at 95 μL/well directly. • 2) Drugs treatment: 9 concentration grades were designed for every drug, and every concentration had 3 wells. The control group had 5 wells. The control group was tested simultaneously in each test. The final concentrations of a drug added were […], and 5 μL normal saline was added to the control group. • 3) Cell culture and detection: the cells were cultured in an incubator with 5% CO2 at 37° C. for 72 h after the drug was added, then 10 μL MTT was added to each well and the culture was continued for 4 h. 100 μL of 10% SDS (containing 0.01N HCl) was added to each well. After 24 h, the absorbance (A) of each well was determined by Bio-rad 680 ELISA with the detection wavelength of 570 nm and the reference wavelength of 630 nm. Calculation:
# First, the absorbance (A) of each well was averaged (removing any data with big difference). […] A0 was the mean absorbance of the control wells. The effect curve of the drug concentration was drawn using EXCEL software and the drug concentration for 50% cell survival was calculated according to an appropriate computing methods.
smiles,measurement,setting,value
"Nc1ccn([C@@H]2O[C@H](CO)[C@@H](O)C2(F)F)c(=O)n1 [Gemcitabine, gemcitabine, reference compound]",stability in PBS (pH=7.4) (in words),[1],stable
same,HPLC peak area of drug,[1]; 0 min,657583.875
same,HPLC peak area of drug,[1]; 1 h,646932.375
same,HPLC peak area of drug,[1]; 2 h,651326.375
same,HPLC peak area of drug,[1]; 4 h,647537.813
same,HPLC peak area of drug,[1]; 6 h,618724
same,HPLC peak area of drug,[1]; 8 h,635026.875
same,HPLC peak area of drug,[1]; 12 h,600425.125
same,HPLC peak area of drug,[1]; 24 h,603669.813
same,IC50,[2],4 µM
same,stability in simulated intestinal fluid (in words),[3],degraded
same,Degrade %,[3]; 0 min,0%
same,HPLC peak area of drug,[3]; 0 min,643704.938
same,Degrade %,[3]; 1 h,27.67%
same,HPLC peak area of drug,[3]; 1 h,465528.594
same,Degrade %,[3]; 2 h,36.2%
same,HPLC peak area of drug,[3]; 2 h,410685.313
same,Degrade %,[3]; 4 h,59.98%
same,HPLC peak area of drug,[3]; 4 h,257604.125
same,Degrade %,[3]; 6 h,69.37%
same,HPLC peak area of drug,[3]; 6 h,197106.406
same,Degrade %,[3]; 8 h,76.72%
same,HPLC peak area of drug,[3]; 8 h,149816.906
same,Degrade %,[3]; 12 h,98.46%
same,HPLC peak area of drug,[3]; 12 h,9873.897
same,Degrade %,[3]; 24 h,99.13%
same,HPLC peak area of drug,[3]; 24 h,5571.352
same,stability in blood plasma (in words),[4],stable
same,chromatography peak area of drug,[4]; 0 min,562562.938
same,chromatography peak area of drug,[4]; 1 h,592859.625
same,chromatography peak area of drug,[4]; 2 h,466418.094
same,chromatography peak area of drug,[4]; 4 h,483743.594
same,chromatography peak area of drug,[4]; 6 h,552648.313
same,chromatography peak area of drug,[4]; 8 h,540059.125
same,chromatography peak area of drug,[4]; 12 h,544300.688
same,weight loss rate,[5],4%
same,"toxicity judged by body weight loss, in words",[5],neither the gemcitabine positive control group nor SL-01 has obvious toxicity
same,weight loss rate,[6]; gemcitabine positive control,9%
same,"effect on growth of HepG2 tumor (growth curve and tumor weight), in words",[6],neither SL-01 nor gemcitabine has shown an obvious inhibitory effect
same,IC50,[7],< 1 µM
"CCCCCCCCCCCCOC(=O)c1nccnc1C(=O)Nc1ccn([C@@H]2O[C@H](CO)[C@@H](O)C2(F)F)c(=O)n1 [Compound 4, Dodecyl-3-((1-((2R,4R,5R)-3,3-difluoro-4-hydroxy-5-(hydroxymethyl)-tetrahydrofuran-2-yl)-2-oxo-1,2-dihydropyrimidin-4-yl)carbamoyl)pyrazine-2-carboxylate]",stability in PBS (pH=7.4) (in words),[1],stable
same,HPLC peak area of drug,[1]; 0 min,399795.688
same,HPLC peak area of drug,[1]; 1 h,379856.688
same,HPLC peak area of drug,[1]; 2 h,397725
same,HPLC peak area of drug,[1]; 4 h,373725.406
same,HPLC peak area of drug,[1]; 6 h,360109.813
same,HPLC peak area of drug,[1]; 8 h,362068.688
same,HPLC peak area of drug,[1]; 12 h,386125.688
same,HPLC peak area of drug,[1]; 24 h,387541.688
same,IC50,[2],8 µM
same,stability in simulated intestinal fluid (in words),[3],stable
same,HPLC peak area of drug,[3]; 0 min,288987.906
same,HPLC peak area of drug,[3]; 1 h,231129.797
same,HPLC peak area of drug,[3]; 2 h,196319.828
same,HPLC peak area of drug,[3]; 4 h,245622.906
same,HPLC peak area of drug,[3]; 6 h,247957.219
same,HPLC peak area of drug,[3]; 8 h,239958.297
same,HPLC peak area of drug,[3]; 12 h,247782.500
same,HPLC peak area of drug,[3]; 24 h,256782.600
same,stability in blood plasma (in words),[4],degradable
same,Degrade %,[4]; 0 min,0%
same,chromatography peak area of drug,[4]; 0 min,336275.344
same,Degrade %,[4]; 1 h,2.77%
same,chromatography peak area of drug,[4]; 1 h,326948.219
same,Degrade %,[4]; 2 h,22.11%
same,chromatography peak area of drug,[4]; 2 h,261917.094
same,Degrade %,[4]; 4 h,46.99%
same,chromatography peak area of drug,[4]; 4 h,178242.781
same,Degrade %,[4]; 6 h,82.31%
same,chromatography peak area of drug,[4]; 6 h,59465.750
same,Degrade %,[4]; 8 h,89.64%
same,chromatography peak area of drug,[4]; 8 h,43894.633
same,Degrade %,[4]; 12 h,96.17%
same,chromatography peak area of drug,[4]; 12 h,12894.514
same,inhibitory rate (relative tumor volume) at the end of the experiments,[5]; 20 mg/kg i.v. (Gem group; SL01 middle dosage group),23%
same,weight loss rate,[5],8%
same,inhibitory rate (relative tumor volume) at the end of the experiments,[5]; SL01 high dosage group 40 mg/kg i.v.,7%
same,"toxicity judged by body weight loss, in words",[5],neither the gemcitabine positive control group nor SL-01 has obvious toxicity
same,weight loss rate,[6]; SL-01 high dosage 40 mg/kg i.v.,3.5%
same,weight loss rate,[6]; SL-01 low dosage 10 mg/kg i.v.,11.6%
same,weight loss rate,[6]; SL-01 middle dosage 20 mg/kg i.v.,14%
same,"effect on growth of HepG2 tumor (growth curve and tumor weight), in words",[6],neither SL-01 nor gemcitabine has shown an obvious inhibitory effect
same,IC50,[7],> 16 µM
